Read-outs that look alike come from different tables or passages of the source.
Columns and labels:
[1] = test system: bloodstream trypomastigotes (BT) forms of T. cruzi (Y strain); assay: Trypanocidal analysis in vitro on bloodstream trypomastigotes; format: cell-based, Trypanosoma cruzi; conditions: for SI (selective index: ratio between LC50/EC50 values): LC50 on mammalian cardiac cells (24 h) / EC50 on BT forms; for EC50: mean ± SD, 24 h of incubation at 37°C, Y strain, read-out: EC50 (drug concentration which reduces the number of the parasites by 50%); for times more active than benznidazole: comparison of EC50 values on bloodstream trypomastigotes
Method: Y strain of T. cruzi was used throughout the experiments. Bloodstream forms were harvested by heart puncture from T. cruzi-infected Swiss mice at the peak of parasitemia.
For the in vitro analysis on trypomastigotes, the parasites were incubated at 310 K in the presence of increasing doses (0–200 μM) of each compound diluted in Dulbecco's modified Eagle's medium which was supplemented with 5% fetal bovine serum and 1 mM L-glutamine (DMES). After 24 h, death rates were determined by light microscopy through the direct quantification of live parasites using Neubauer chamber, and EC50 values (drug concentration which reduces 50% of the number of live parasites) were then calculated as reported.

[2] = molecular target: T1, human serum albumin (HSA) (Homo sapiens, UniProt P02768); assay: Quenching of HSA intrinsic fluorescence (Stern-Volmer); format: binding; conditions: HSA 4 × 10^−6 mol L^−1, 296 K, pH 7.4; standard error 0.2 × 10^4 L mol^−1; corrected for inner filter effect
T1 construct: purchased Sigma-Aldrich
T1 sequence (P02768 25-609): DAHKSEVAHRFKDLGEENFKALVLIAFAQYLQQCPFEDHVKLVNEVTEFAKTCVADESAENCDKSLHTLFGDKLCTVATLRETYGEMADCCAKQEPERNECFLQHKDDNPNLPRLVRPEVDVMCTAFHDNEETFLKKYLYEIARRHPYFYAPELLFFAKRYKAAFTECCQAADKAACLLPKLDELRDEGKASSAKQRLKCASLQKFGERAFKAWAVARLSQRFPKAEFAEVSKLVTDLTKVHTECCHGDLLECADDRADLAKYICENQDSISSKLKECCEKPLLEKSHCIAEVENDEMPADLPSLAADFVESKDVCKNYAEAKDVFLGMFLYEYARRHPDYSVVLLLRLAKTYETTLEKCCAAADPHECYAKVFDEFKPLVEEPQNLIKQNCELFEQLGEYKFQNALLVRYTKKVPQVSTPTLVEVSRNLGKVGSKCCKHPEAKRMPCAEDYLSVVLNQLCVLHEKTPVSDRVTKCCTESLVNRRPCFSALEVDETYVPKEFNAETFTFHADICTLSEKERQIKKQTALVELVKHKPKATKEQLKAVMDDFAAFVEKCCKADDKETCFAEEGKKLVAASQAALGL
Method: (§1) Steady state fluorescence measurements were performed on a Varian-Agilent Cary Eclipse or a PTI QM1 fluorescence system. UV-Vis absorption spectra were obtained with an Agilent diode array spectrophotometer model 8452A. Fluorescence lifetimes were measured using IBH-Horiba-Jobin Yvon TCSPC system. NanoLEDs with 1.0 ns nominal pulse duration and 1 MHz repetition rate were used as light sources for exciting the intrinsic HSA or BSA fluorescence (283 nm) and NOR fluorescence (330 nm).
(§2) Quenching measurements of albumin fluorescence were taken in 3 mL of BSA or HSA (4 × 10^−6 mol L^−1) in phosphate buffer 10 mM at pH 7.4. The albumin solutions were titrated by successive additions of the complex stock solutions. The fluorescence emission spectra of BSA and HSA were measured using an excitation wavelength of 290 nm. Experiments were performed at ambient temperature (296 K) and pH 7.4.
(§3) In this section, the quenching of BSA and HSA fluorescence by Cu(II) ions, Cu(II)-bipy, Cu(II)-phen, and complexes 1 and 2 was monitored. All the UV absorption and emission spectra were registered. The fluorescence decay curves with excitation at 283 nm and emission at 340 nm were obtained in the absence of the quenchers, at an intermediary and at the final quencher concentration. The raw data are available in Supplementary Material available online at http://dx.doi.org/10.1155/2016/5027404. The fluorescence intensity was attenuated by absorption of the incident and emitted light. […] The fluorescence spectra were corrected using the following expression:(2) Fcorr=Fobs10^Aex+Aeml/2, where F corr and F obs are the corrected and observed fluorescence intensity, A ex and A em are the absorbance at the excitation and emission wavelengths, respectively, and ℓ is the optical path in cm.
(§4) Quenching of a fluorophore by a drug can occur by a static or dynamic process. Static or dynamic quenching at a single site can be described by the Stern-Volmer equation [36]:(3) F0/F=1+KSVQ, where F 0 and F are the fluorescence intensities of albumins in the absence and presence of complexes, respectively. [Q] is the quencher concentration, and K SV is the Stern-Volmer quenching constant, which is related to the bimolecular collisional process in dynamic quenching but is the association constant in static quenching. Stern-Volmer constants were obtained for the linear region of the plots (Table 3).

[3] = molecular target: T2, bovine serum albumin (BSA) (Bos taurus, UniProt P02769); assay: Quenching of BSA intrinsic fluorescence (Stern-Volmer); format: binding; conditions: BSA 4 × 10^−6 mol L^−1, 296 K, pH 7.4; standard error 0.2 × 10^4 L mol^−1; corrected for inner filter effect
T2 construct: purchased Sigma-Aldrich
T2 sequence (P02769 25-607): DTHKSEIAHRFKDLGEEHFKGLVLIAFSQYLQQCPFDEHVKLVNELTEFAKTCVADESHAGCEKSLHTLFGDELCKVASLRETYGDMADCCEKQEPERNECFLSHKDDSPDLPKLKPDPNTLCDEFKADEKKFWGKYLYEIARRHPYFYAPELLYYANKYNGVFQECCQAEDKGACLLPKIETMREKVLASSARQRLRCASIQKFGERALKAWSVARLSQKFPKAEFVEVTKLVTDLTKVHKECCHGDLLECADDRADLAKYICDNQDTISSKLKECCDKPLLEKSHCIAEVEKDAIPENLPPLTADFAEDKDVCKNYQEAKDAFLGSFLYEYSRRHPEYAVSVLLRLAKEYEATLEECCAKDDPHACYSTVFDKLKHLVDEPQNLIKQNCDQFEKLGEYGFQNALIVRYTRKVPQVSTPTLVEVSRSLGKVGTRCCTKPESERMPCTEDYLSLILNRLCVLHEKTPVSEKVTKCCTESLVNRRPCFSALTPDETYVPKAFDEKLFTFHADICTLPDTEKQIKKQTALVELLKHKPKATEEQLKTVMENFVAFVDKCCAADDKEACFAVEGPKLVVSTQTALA
Method: as §1, §2, §3, §4

[4] = test system: bloodstream trypomastigotes (BT) forms of T. cruzi (Y strain); set-up: method as in Martins et al., 2012 [14]; conditions: ref Martins et al., 2012 [14], cited from earlier work; for SI (selective index: ratio between LC50/EC50 values): LC50 on mammalian cardiac cells / EC50 on BT forms; for EC50: mean ± SD, 24 h of incubation at 37°C, Y strain, read-out: EC50 (drug concentration which reduces the number of the parasites by 50%)

| Compound | SI (selective index: ratio between LC50/EC50 values) [1] | EC50 ([1]; Trypanosoma cruzi) [µM] | K SV (Stern-Volmer constant) [2] [L/mol] | K SV (Stern-Volmer constant) [3] [L/mol] | SI (selective index: ratio between LC50/EC50 values) [4] | EC50 [4] [µM] | EC50 [1] [µM] | times more active than benznidazole [1] |
| --- | --- | --- | --- | --- | --- | --- | --- | --- |
| O=C(Cn1ccnc1[N+](=O)[O-])NCc1ccccc1 [Benznidazole] | 77 | 13 ± 2 | – | – | – | – | – | – |
| [Cu+2] [Cu(II)] | – | – | 29000 | 35000 | – | – | – | – |
| [Cl][Cu][Cl] [CuCl2] | – | – | – | – | 6 | 83 ± 3 | – | – |
| CCn1cc(C(=O)O)c(=O)c2cc(F)c(N3CCNCC3)cc21 [Norfloxacin, 1-ethyl-6-fluoro-1,4-dihydro-4-oxo-7-(1-piperazinyl)-quinoline-3-carboxylic acid] | >1.25 | 126 ± 30 | – | – | – | – | – | – |
| [Cl][Cu][Cl].c1ccc(-c2ccccn2)nc1 [[CuCl2(bipy)]] | – | – | 50000 | 31000 | 4.5 | 14 ± 7 | – | – |
| [CuCl2(NOR)] | 0.8 | – | – | – | – | – | 78 ± 12 | – |
| [CuCl2(phen)(NOR)]·3H2O [complex 2] | 2.68 | – | 49000 | 37000 | – | – | 4.4 ± 1.4 | 2-3 times |
| [CuCl2(phen)] | – | – | 51000 | 35000 | <4 | 7 ± 5 | – | 2-3 times |
| [CuCl(bipy)(NOR)]Cl·2H2O [complex 1] | 4 | – | 58000 | 30000 | – | – | 16 ± 4 | – |

Source: paper PMC4746275, “Norfloxacin and N-Donor Mixed-Ligand Copper(II) Complexes: Synthesis, Albumin Interaction, and Anti-Trypanosoma cruzi Activity” (Bioinorganic Chemistry and Applications, 2016)
